Data reported in patent US7879881B2, “Piperidinyl compounds that selectively bind integrins” (Janssen Pharmaceutica NV, priority 2002, dated 2011).

Experiments:
[1] = target: GP IIb/IIIa (Homo sapiens, UniProt P05106+P08514); experiment: In Vitro Solid Phase Purified GP IIb/IIIa Binding Assay (biotinylated fibrinogen); details: biotinylated fibrinogen binding to immobilized purified GP IIb/IIIa; mean ± spread; read-out: αIIbβ3 IC50
Method in brief: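 Purified GP IIb/IIIa coated overnight at 4° C, blocked with 5% BSA, then incubated with test compound and biotinylated fibrinogen for 2-4 h at RT in modified Tyrodes buffer. Bound fibrinogen detected with avidin-biotin HRP complex and o-phenylenediamine/H2O2 (citrate/phosphate pH 5.3), stopped with 2 N H2SO4.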

[2] = target: T1, human purified αVβ5 (Homo sapiens, UniProt P06756+P18084); experiment: In Vitro Solid Phase Purified αcβ5 Binding Assay (vitronectin/αVβ5); details: vitronectin binding to immobilized purified human αVβ5; mean ± spread; read-out: αvβ5 IC50
T1 construct: purchased Chemicon International, Inc
Method in brief: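 Purified human integrin immobilized at 1 μg/ml in Tris buffer with Ca2+, Mg2+, Mn2+ and NaCl, then BSA-blocked. Compounds added just before 2 nM vitronectin, 3 h at 37 °C. Bound vitronectin detected by anti-vitronectin antibody with biotin/peroxidase (ABC) detection at 490 nm.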

[3] = target: T2, Human αvβ3 (Homo sapiens, UniProt P05106+P06756); experiment: In Vitro Solid Phase Purified αvβ3 Binding Assay (vitronectin/αvβ3); details: vitronectin binding to immobilized purified human αvβ3; mean ± spread; read-out: αvβ3IC50
T2 construct: purchased Chemicon International Inc., Temecula, Calif
Method in brief: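 Purified human αvβ3 immobilized at 1 μg/ml in Tris buffer with Ca, Mg and Mn; compounds competed with 2 nM vitronectin for 3 h at 37 °C. Bound vitronectin detected by anti-vitronectin antibody and peroxidase ABC, absorbance at 490 nm.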

T1 sequence (P06756 31-889 limits assumed): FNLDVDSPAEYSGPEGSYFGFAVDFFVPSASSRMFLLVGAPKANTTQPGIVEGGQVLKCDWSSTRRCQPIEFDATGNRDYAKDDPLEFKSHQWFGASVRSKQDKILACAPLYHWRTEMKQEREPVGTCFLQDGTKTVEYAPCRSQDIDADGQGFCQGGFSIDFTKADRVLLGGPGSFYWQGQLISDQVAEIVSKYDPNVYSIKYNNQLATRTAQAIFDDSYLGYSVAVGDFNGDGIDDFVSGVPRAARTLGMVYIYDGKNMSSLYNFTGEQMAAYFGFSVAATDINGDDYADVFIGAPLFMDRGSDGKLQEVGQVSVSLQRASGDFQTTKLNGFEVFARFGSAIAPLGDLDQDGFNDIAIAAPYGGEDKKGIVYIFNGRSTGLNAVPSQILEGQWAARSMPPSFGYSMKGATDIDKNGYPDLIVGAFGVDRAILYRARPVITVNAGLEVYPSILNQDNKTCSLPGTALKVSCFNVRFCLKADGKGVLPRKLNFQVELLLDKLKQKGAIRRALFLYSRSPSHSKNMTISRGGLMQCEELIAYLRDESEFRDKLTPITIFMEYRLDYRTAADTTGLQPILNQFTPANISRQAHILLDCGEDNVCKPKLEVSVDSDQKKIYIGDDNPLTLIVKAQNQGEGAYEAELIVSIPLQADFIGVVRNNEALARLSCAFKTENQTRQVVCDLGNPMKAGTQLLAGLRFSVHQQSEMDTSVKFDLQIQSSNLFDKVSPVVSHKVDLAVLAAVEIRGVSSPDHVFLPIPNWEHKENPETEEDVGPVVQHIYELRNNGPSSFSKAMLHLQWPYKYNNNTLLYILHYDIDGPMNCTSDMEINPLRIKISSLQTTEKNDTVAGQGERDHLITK
T1 sequence (P06756 891-1048 partner limits assumed): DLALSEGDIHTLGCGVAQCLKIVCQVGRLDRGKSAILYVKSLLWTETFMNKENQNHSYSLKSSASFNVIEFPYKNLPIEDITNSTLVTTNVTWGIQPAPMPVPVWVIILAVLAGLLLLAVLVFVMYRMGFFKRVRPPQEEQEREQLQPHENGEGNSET
T1 sequence (P18084 24-799): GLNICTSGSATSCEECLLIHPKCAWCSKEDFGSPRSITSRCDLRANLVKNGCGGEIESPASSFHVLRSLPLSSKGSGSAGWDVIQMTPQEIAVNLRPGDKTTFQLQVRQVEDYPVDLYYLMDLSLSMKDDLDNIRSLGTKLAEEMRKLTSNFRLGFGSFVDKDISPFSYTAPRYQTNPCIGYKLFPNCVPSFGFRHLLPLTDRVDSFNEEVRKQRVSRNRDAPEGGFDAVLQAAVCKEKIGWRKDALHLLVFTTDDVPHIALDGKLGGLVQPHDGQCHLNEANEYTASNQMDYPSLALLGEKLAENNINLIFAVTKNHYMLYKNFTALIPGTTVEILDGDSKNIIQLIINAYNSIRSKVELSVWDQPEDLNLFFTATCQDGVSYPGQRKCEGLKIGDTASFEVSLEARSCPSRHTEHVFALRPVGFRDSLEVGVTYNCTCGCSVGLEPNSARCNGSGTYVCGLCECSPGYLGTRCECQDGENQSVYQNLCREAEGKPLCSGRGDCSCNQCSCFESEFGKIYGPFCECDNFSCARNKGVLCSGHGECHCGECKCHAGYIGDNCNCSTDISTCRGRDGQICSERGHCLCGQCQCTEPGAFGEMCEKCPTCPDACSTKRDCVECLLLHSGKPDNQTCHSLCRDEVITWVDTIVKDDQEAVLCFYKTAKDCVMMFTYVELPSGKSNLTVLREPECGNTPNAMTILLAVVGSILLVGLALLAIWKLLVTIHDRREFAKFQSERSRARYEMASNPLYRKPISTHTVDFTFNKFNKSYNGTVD
T2 sequence (P06756 31-889 limits assumed): as the sequence (P06756 31-889 limits assumed) above
T2 sequence (P06756 891-1048 partner limits assumed): as the sequence (P06756 891-1048 partner limits assumed) above
T2 sequence (P05106 27-788): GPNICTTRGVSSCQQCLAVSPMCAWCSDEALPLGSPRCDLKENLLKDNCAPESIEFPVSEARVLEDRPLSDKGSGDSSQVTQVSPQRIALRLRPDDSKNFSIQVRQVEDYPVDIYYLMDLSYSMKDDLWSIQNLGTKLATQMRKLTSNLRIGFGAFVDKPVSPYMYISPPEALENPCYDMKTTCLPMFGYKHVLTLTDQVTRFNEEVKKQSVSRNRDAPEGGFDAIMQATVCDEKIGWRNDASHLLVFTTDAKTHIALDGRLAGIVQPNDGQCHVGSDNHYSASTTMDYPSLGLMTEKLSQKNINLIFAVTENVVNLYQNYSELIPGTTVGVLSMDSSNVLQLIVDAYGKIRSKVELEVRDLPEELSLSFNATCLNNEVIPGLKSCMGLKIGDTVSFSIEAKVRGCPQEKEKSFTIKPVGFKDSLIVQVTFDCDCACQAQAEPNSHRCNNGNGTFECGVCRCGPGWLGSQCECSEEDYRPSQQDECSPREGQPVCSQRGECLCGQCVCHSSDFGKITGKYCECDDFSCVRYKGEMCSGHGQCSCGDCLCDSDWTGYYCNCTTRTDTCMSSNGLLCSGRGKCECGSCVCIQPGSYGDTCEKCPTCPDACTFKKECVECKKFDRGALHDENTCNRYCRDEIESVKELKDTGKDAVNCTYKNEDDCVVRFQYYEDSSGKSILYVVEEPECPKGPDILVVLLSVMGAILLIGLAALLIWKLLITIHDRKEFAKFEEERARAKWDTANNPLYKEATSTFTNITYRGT
GP IIb/IIIa, sequence (P08514 32-887 limits assumed): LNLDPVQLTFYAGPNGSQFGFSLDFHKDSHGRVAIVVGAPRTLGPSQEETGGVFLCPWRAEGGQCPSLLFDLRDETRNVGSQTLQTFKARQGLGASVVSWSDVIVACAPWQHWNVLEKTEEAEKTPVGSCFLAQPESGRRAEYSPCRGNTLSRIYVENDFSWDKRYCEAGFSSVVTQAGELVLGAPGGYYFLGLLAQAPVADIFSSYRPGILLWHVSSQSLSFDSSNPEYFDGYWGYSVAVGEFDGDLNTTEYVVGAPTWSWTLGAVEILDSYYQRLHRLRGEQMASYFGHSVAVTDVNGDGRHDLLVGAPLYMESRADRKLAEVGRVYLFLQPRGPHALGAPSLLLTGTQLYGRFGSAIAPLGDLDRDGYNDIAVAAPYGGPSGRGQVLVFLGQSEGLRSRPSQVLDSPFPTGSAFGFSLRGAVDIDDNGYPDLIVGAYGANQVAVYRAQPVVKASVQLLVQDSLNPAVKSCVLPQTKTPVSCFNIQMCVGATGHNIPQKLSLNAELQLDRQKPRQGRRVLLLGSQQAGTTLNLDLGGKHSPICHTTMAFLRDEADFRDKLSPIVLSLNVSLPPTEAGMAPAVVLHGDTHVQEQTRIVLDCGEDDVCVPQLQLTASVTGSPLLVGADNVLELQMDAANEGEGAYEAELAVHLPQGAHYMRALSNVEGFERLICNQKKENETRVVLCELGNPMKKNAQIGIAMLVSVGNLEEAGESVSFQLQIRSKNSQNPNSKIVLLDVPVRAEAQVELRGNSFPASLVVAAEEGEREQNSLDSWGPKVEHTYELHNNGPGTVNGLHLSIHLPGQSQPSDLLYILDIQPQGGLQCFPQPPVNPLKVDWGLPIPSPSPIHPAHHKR
GP IIb/IIIa, sequence (P08514 891-1039 partner limits assumed): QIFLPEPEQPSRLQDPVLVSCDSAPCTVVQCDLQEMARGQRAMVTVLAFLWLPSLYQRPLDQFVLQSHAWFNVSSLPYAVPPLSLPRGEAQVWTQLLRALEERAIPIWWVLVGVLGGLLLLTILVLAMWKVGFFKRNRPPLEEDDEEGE
GP IIb/IIIa, sequence (P05106 27-788): as the sequence (P05106 27-788) above

Compound | IC50 [1] [nM] | IC50 [2] [nM] | IC50 [3] [nM]
CC(C)OC(=O)CCCC1CCN(C(=O)CCc2ccc3c(n2)NCCC3)CC1 [Cpd 69, 4-[1-(3-5,6,7,8-Tetrahydro-[1,8]naphthyridin-2-yl-propionyl)-piperidin-4-yl]-butyric acid isopropyl ester] | > 50000 | > 1000 | > 500
CC(C)(C)OC(=O)CCCC1CCN(C(=O)CCc2ccc3c(n2)NCCC3)CC1 [Cpd 70, 4-[1-(3-5,6,7,8-Tetrahydro-[1,8]naphthyridin-2-yl-propionyl)-piperidin-4-yl]-butyric acid tert-butyl ester] | > 50000 | > 1000 | > 500
CCCCCCCCOC(=O)CCCC1CCN(C(=O)CCc2ccc3c(n2)NCCC3)CC1 [Cpd 71, 4-[1-(3-5,6,7,8-Tetrahydro-[1,8]naphthyridin-2-yl-propionyl)-piperidin-4-yl]-butyric acid octyl ester] | > 50000 | > 1000 | > 500
COC(=O)CCCC1CCN(C(=O)CCc2ccc3c(n2)NCCC3)CC1 [Cpd 73, 4-[1-(3-5,6,7,8-Tetrahydro-[1,8]naphthyridin-2-yl-propionyl)-piperidin-4-yl]-butyric acid methyl ester] | > 50000 | > 1000 | > 500
CC(C)(C)C(=O)OCOC(=O)CCCC1CCN(C(=O)CCc2ccc3c(n2)NCCC3)CC1 [Cpd 74, 4-[1-(3-5,6,7,8-Tetrahydro-[1,8]naphthyridin-2-yl-propionyl)-piperidin-4-yl]-butyric acid 2,2-dimethyl-propionyloxymethyl ester] | > 50000 | > 1000 | 193

Now those with a lower IC50 [1], led by results:

IC50 [1] [nM] | IC50 [2] [nM] | IC50 [3] [nM] | Compound
10400 | 16.9 ± 2.1 | 1.1 ± 0.2 | COc1cc(C(CC(=O)O)CC2CCN(C(=O)CCc3ccc4c(n3)NCCC4)CC2)ccc1O (stereo not drawn) [Cpd 76a]
570 ± 40 | > 50000 | 6.4 ± 1.4 | β-[2-[1-[1-oxo-3-(5,6,7,8-tetrahydro-1,8-naphthyridin-2-yl)propyl]-4-piperidinyl]ethyl]-3-quinolinepropanoic acid [Cpd 52]
